Legend:
[1] = Blood chemistry examination in mice; assay type: in vivo, ICR mice
Method: (§1) [^211At]PSMA-5 was administered intravenously to 25 mice, and its biodistribution was evaluated. For the toxicity study, three doses of [^211At]PSMA-5 (5, 12, and 35 MBq/kg, single dose) or saline were intravenously administered to 10 mice/group for the main evaluation point on day 1, and 5-mice/group for recovery evaluation on day 14, adhering to the ICH M3 (R2) guidelines. The dosage was determined based on our previous study using [^211At]NaAt. The monkeys were monitored for 24 h post-administration of [^211At]PSMA-5 (9 MBq/kg).
A blood cell counter was used for the measurements (CB-1010; ARKRAY, Inc., Kyoto, Japan). Red blood cell count (RBC), hemoglobin concentration (Hb), hematocrit (Ht), white blood cell count (WBC), platelet count (platelet), lymphocytes (%Lymph), monocytes (%Mon), and granulocytes (%Gra) were calculated. Plasma was analyzed using a dry clinical chemistry analyzer (Spotchem D-00 QR D-02; ARKRAY, Inc., Kyoto, Japan). The levels of aspartate aminotransferase (AST), alanine aminotransferase (ALT), gamma-glutamyl transpeptidase (γ-GTP), lactate dehydrogenase (LDH), alkaline phosphatase (ALP), creatine kinase (CK), amylase (AMY), total bilirubin (TBIL), creatinine (CRE), urea nitrogen (BUN), glucose (GLU), total protein (TP), albumin (ALB), total cholesterol (TCHO), triglyceride (TG), and electrolytes (Na, K, and Cl) were measured.

[2] = Histological evaluation in monkeys; assay type: in vivo, cynomolgus monkeys; conditions: 9 MBq/kg, 24 h
Method: as §1
The brain, salivary gland, thyroid, heart, lungs, liver, kidney, adrenal gland, pancreas, spleen, thymus, stomach, small intestine, large intestine, bladder, prostate, and testes were collected on days 1 or 14 in mice and at 24 h in monkeys. Additionally, the pituitary gland, tongue, trachea, esophagus, mesenteric lymph nodes, epididymis, seminal vesicles, skin, mammary glands, spinal cord, bone, bone marrow (femur), eyeball, and optic nerve were collected from the mice. After fixation, paraffin sections were prepared and stained with hematoxylin and eosin (HE). All the specimens were evaluated by an expert in toxic pathology using an integrated fluorescence microscope (BZ-X810; Keyence Corporation. Osaka, Japan). In mice, the brain, salivary glands, heart, lungs, liver, gallbladder, spleen, kidneys, and testes were weighed according to ICH S4 guideline.

SMILES: O=C(O)CC[C@H](NC(=O)N[C@@H](CCCCNC(=O)[C@@H](Cc1ccc2ccccc2c1)NC(=O)c1ccc(CNC(=O)[C@@H](CCC(=O)O)NC(=O)[C@@H](CCC(=O)O)NC(=O)Cc2ccc([211At])cc2)cc1)C(=O)O)C(=O)O [[^211At]PSMA-5]
- ALB ([1]; 5 MBq/kg i.v., day 1): 2.3 ± 0.2 g/dL
- ALP ([1]; 5 MBq/kg i.v., day 1): 194 ± 86 IU/L
- ALT ([1]; 5 MBq/kg i.v., day 1): 41.2 ± 31.6 IU/L
- AMY ([1]; 5 MBq/kg i.v., day 1): 2675 ± 562 IU/L
- AST ([1]; 5 MBq/kg i.v., day 1): 43.8 ± 30.3 IU/L
- BUN ([1]; 5 MBq/kg i.v., day 1): 22 ± 8.3 mg/dL
- CK ([1]; 5 MBq/kg i.v., day 1): 180 ± 60 IU/L
- CRE ([1]; 5 MBq/kg i.v., day 1): 0.2 ± 0 mg/dL
- GLU ([1]; 5 MBq/kg i.v., day 1): 198 ± 70 mg/dL
- K ([1]; 5 MBq/kg i.v., day 1): 4.5 ± 0.5 mEq/L
- LDH ([1]; 5 MBq/kg i.v., day 1): 641 ± 281 IU/L
- Na ([1]; 5 MBq/kg i.v., day 1): 141 ± 2.5 mEq/L
- TBIL ([1]; 5 MBq/kg i.v., day 1): 0.6 ± 0.22 mg/dL
- TCHO ([1]; 5 MBq/kg i.v., day 1): 130 ± 20 mg/dL
- TG ([1]; 5 MBq/kg i.v., day 1): 112 ± 75 mg/dL
- TP ([1]; 5 MBq/kg i.v., day 1): 4.1 ± 0.4 g/dL
- γ-GTP ([1]; 5 MBq/kg i.v., day 1): 10 ± 0 IU/L
- ALB ([1]; 5 MBq/kg i.v., day 14): 2.2 ± 0.1 g/dL
- ALP ([1]; 5 MBq/kg i.v., day 14): 171 ± 36 IU/L
- ALT ([1]; 5 MBq/kg i.v., day 14): 16.5 ± 4.9 IU/L
- AMY ([1]; 5 MBq/kg i.v., day 14): 2200 ± 428 IU/L
- AST ([1]; 5 MBq/kg i.v., day 14): 45 ± 22.7 IU/L
- BUN ([1]; 5 MBq/kg i.v., day 14): 27.6 ± 1.1 mg/dL
- CK ([1]; 5 MBq/kg i.v., day 14): 162 ± 91 IU/L
- CRE ([1]; 5 MBq/kg i.v., day 14): 0.2 ± 0 mg/dL
- GLU ([1]; 5 MBq/kg i.v., day 14): 146 ± 39 mg/dL
- K ([1]; 5 MBq/kg i.v., day 14): 5.1 ± 1.2 mEq/L
- LDH ([1]; 5 MBq/kg i.v., day 14): 611 ± 24 IU/L
- Na ([1]; 5 MBq/kg i.v., day 14): 143 ± 1.9 mEq/L
- TBIL ([1]; 5 MBq/kg i.v., day 14): 0.88 ± 0.16 mg/dL
- TCHO ([1]; 5 MBq/kg i.v., day 14): 151 ± 18 mg/dL
- TG ([1]; 5 MBq/kg i.v., day 14): 75 ± 17 mg/dL
- TP ([1]; 5 MBq/kg i.v., day 14): 4.1 ± 0.5 g/dL
- γ-GTP ([1]; 5 MBq/kg i.v., day 14): 10 ± 0 IU/L
- ALB ([1]; 12 MBq/kg i.v., day 1): 2.3 ± 0.2 g/dL
- ALP ([1]; 12 MBq/kg i.v., day 1): 193 ± 100 IU/L
- ALT ([1]; 12 MBq/kg i.v., day 1): 29.0 ± 5.8 IU/L
- AMY ([1]; 12 MBq/kg i.v., day 1): 2666 ± 537 IU/L
- AST ([1]; 12 MBq/kg i.v., day 1): 37 ± 11.5 IU/L
- BUN ([1]; 12 MBq/kg i.v., day 1): 20.7 ± 8.3 mg/dL
- CK ([1]; 12 MBq/kg i.v., day 1): 192 ± 50 IU/L
- CRE ([1]; 12 MBq/kg i.v., day 1): 0.2 ± 0 mg/dL
- GLU ([1]; 12 MBq/kg i.v., day 1): 185 ± 42 mg/dL
- K ([1]; 12 MBq/kg i.v., day 1): 4.5 ± 0.3 mEq/L
- LDH ([1]; 12 MBq/kg i.v., day 1): 736 ± 363 IU/L
- Na ([1]; 12 MBq/kg i.v., day 1): 142 ± 2.0 mEq/L
- TBIL ([1]; 12 MBq/kg i.v., day 1): 0.53 ± 0.16 mg/dL
- TCHO ([1]; 12 MBq/kg i.v., day 1): 128 ± 20 mg/dL
- TG ([1]; 12 MBq/kg i.v., day 1): 119 ± 75 mg/dL
- TP ([1]; 12 MBq/kg i.v., day 1): 4.1 ± 0.3 g/dL
- γ-GTP ([1]; 12 MBq/kg i.v., day 1): 10 ± 0 IU/L
- ALB ([1]; 12 MBq/kg i.v., day 14): 2.1 ± 0.3 g/dL
- ALP ([1]; 12 MBq/kg i.v., day 14): 110 ± 59 IU/L
- ALT ([1]; 12 MBq/kg i.v., day 14): 21.5 ± 0.7 IU/L
- AMY ([1]; 12 MBq/kg i.v., day 14): 2514 ± 549 IU/L
- AST ([1]; 12 MBq/kg i.v., day 14): 28.8 ± 15.4 IU/L
- BUN ([1]; 12 MBq/kg i.v., day 14): 30.6 ± 6.1 mg/dL
- CK ([1]; 12 MBq/kg i.v., day 14): 144 ± 26 IU/L
- CRE ([1]; 12 MBq/kg i.v., day 14): 0.22 ± 0.04 mg/dL
- GLU ([1]; 12 MBq/kg i.v., day 14): 148 ± 24 mg/dL
- K ([1]; 12 MBq/kg i.v., day 14): 5.4 ± 0.8 mEq/L
- LDH ([1]; 12 MBq/kg i.v., day 14): 456 ± 72 IU/L
- Na ([1]; 12 MBq/kg i.v., day 14): 143 ± 2.8 mEq/L
- TBIL ([1]; 12 MBq/kg i.v., day 14): 0.68 ± 0.13 mg/dL
- TCHO ([1]; 12 MBq/kg i.v., day 14): 138 ± 20 mg/dL
- TG ([1]; 12 MBq/kg i.v., day 14): 87 ± 42 mg/dL
- TP ([1]; 12 MBq/kg i.v., day 14): 3.9 ± 0.4 g/dL
- γ-GTP ([1]; 12 MBq/kg i.v., day 14): 10 ± 0 IU/L
- ALB ([1]; 35 MBq/kg i.v., day 1): 2.2 ± 0.1 g/dL
- ALP ([1]; 35 MBq/kg i.v., day 1): 208 ± 67 IU/L
- ALT ([1]; 35 MBq/kg i.v., day 1): 53.0 ± 10.3 IU/L
- AMY ([1]; 35 MBq/kg i.v., day 1): 2795 ± 363 IU/L
- BUN ([1]; 35 MBq/kg i.v., day 1): 19.6 ± 6.2 mg/dL
- CK ([1]; 35 MBq/kg i.v., day 1): 170 ± 65 IU/L
- CRE ([1]; 35 MBq/kg i.v., day 1): 0.2 ± 0 mg/dL
- GLU ([1]; 35 MBq/kg i.v., day 1): 201 ± 31 mg/dL
- K ([1]; 35 MBq/kg i.v., day 1): 5.1 ± 0.5 mEq/L
- LDH ([1]; 35 MBq/kg i.v., day 1): 638 ± 385 IU/L
- Na ([1]; 35 MBq/kg i.v., day 1): 140 ± 1.4 mEq/L
- TBIL ([1]; 35 MBq/kg i.v., day 1): 0.71 ± 0.48 mg/dL
- TCHO ([1]; 35 MBq/kg i.v., day 1): 129 ± 21 mg/dL
- TG ([1]; 35 MBq/kg i.v., day 1): 122 ± 79 mg/dL
- TP ([1]; 35 MBq/kg i.v., day 1): 4.0 ± 0.3 g/dL
- γ-GTP ([1]; 35 MBq/kg i.v., day 1): 10 ± 0 IU/L
- AST ([1]; 35 MBq/kg i.v., day 1, hemolysis was observed): 51.5 ± 36.2 IU/L
- ALB ([1]; 35 MBq/kg i.v., day 14): 2.3 ± 0.1 g/dL
- ALP ([1]; 35 MBq/kg i.v., day 14): 133 ± 46 IU/L
- ALT ([1]; 35 MBq/kg i.v., day 14): 13.0 ± 0.0 IU/L
- AMY ([1]; 35 MBq/kg i.v., day 14): 2678 ± 388 IU/L
- AST ([1]; 35 MBq/kg i.v., day 14): 28.4 ± 9.9 IU/L
- BUN ([1]; 35 MBq/kg i.v., day 14): 23.4 ± 3.4 mg/dL
- CK ([1]; 35 MBq/kg i.v., day 14): 141 ± 18 IU/L
- CRE ([1]; 35 MBq/kg i.v., day 14): 0.2 ± 0 mg/dL
- GLU ([1]; 35 MBq/kg i.v., day 14): 141 ± 21 mg/dL
- K ([1]; 35 MBq/kg i.v., day 14): 4.7 ± 0.6 mEq/L
- LDH ([1]; 35 MBq/kg i.v., day 14): 538 ± 129 IU/L
- Na ([1]; 35 MBq/kg i.v., day 14): 143 ± 2.6 mEq/L
- TBIL ([1]; 35 MBq/kg i.v., day 14): 0.68 ± 0.33 mg/dL
- TCHO ([1]; 35 MBq/kg i.v., day 14): 144 ± 15 mg/dL
- TG ([1]; 35 MBq/kg i.v., day 14): 67 ± 18 mg/dL
- TP ([1]; 35 MBq/kg i.v., day 14): 4.1 ± 0.2 g/dL
- γ-GTP ([1]; 35 MBq/kg i.v., day 14): 10 ± 0 IU/L
- administration-related pathology in brain, salivary glands, thyroid, heart, liver, gallbladder, pancreas, rectum, kidney, bladder, adrenal glands, prostate [2]: No pathological abnormalities
- crypt epithelial cells of the small and large (cecum) intestines [2]: Mild single-cell necrosis/apoptosis
- tingible body macrophages in white pulp of the spleen, intraparotid and intrapulmonary lymph nodes [2]: mild increase

Source: article PMC11172375, “Preclinical Evaluation of Biodistribution and Toxicity of [^211At]PSMA-5 in Mice and Primates for the Targeted Alpha Therapy against Prostate Cancer” (International Journal of Molecular Sciences, 2024)
